US12077503B2, “Substituted cyclic amides and their use as herbicides” (FMC CORPORATION, priority 2015, dated 2024)

Assays:
Assay type in all cases: in vivo
[1] = tested on: giant foxtail (Setaria faberi); assay: Test G Post-Emergence Protocol
Protocol: (§1) Seeds of corn (Zea mays), giant foxtail (Setaria faberi), barnyardgrass (Echinochloa crus-galli), ivy-leaved morning glory (Ipomoea hederacea), redroot pigweed (Amaranthus retroflexus) and velvetleaf (Abutilon theophrasti) were sown in standard soil in pots. After cultivation for 8 days under controlled conditions in a glasshouse (at 24/16° C., day/night; 14 hours light; 65% humidity), the plants were sprayed with an aqueous spray solution derived from the formulation of the technical active ingredient in acetone/water (50:50) solution containing 0.5% Tween 20 (polyoxyethylene sorbitan monolaurate, CAS RN 9005-64-5) to give a final dose of 15.625, 62.5 or 250 g/ha of test compound.
(§2) The test plants were then grown on under controlled conditions in a glasshouse (at 24/16° C., day/night; 14 hours light; 65% humidity) and watered twice daily. After 13 days the test was evaluated (100=total damage to plant; 0=no damage to plant). A dash (-) means no test result.

[2] = tested on: barnyardgrass (Echinochloa crus-galli); assay: Test G Post-Emergence Protocol
Protocol: as §1, §2

[3] = tested on: redroot pigweed (Amaranthus retroflexus); assay: Test G Post-Emergence Protocol
Protocol: as §1, §2

[4] = tested on: ivy-leaved morning glory (Ipomoea hederacea); assay: Test G Post-Emergence Protocol
Protocol: as §1, §2

[5] = tested on: corn (Zea mays); assay: Test G Post-Emergence Protocol
Protocol: as §1, §2

[6] = tested on: velvetleaf (Abutilon theophrasti); assay: Test G Post-Emergence Protocol
Protocol: as §1, §2

[7] = tested on: giant foxtail (Setaria faberi); assay: Test G Pre-Emergence Protocol; details: evaluated after 13 days
Protocol: as §1, with “one day” for “8 days”
as §2

[8] = tested on: barnyardgrass (Echinochloa crus-galli); assay: Test G Pre-Emergence Protocol; details: evaluated after 13 days
Protocol: as §1, with “one day” for “8 days”
as §2

[9] = tested on: redroot pigweed (Amaranthus retroflexus); assay: Test G Pre-Emergence Protocol; details: evaluated after 13 days
Protocol: as §1, with “one day” for “8 days”
as §2

[10] = tested on: ivy-leaved morning glory (Ipomoea hederacea); assay: Test G Pre-Emergence Protocol; details: evaluated after 13 days; for Morningglory, Ivy-leaved damage rating (100=total damage to plant; 0=no damage to plant): 250 g ai/ha
Protocol: as §1, with “one day” for “8 days”
as §2

[11] = tested on: corn (Zea mays); assay: Test G Pre-Emergence Protocol; details: evaluated after 13 days
Protocol: as §1, with “one day” for “8 days”
as §2

[12] = tested on: velvetleaf (Abutilon theophrasti); assay: Test G Pre-Emergence Protocol; details: evaluated after 13 days
Protocol: as §1, with “one day” for “8 days”
as §2

[13] = 15.625 g ai/ha, evaluated after 13 days (100=total damage to plant; 0=no damage to plant)
[14] = 62.5 g ai/ha, evaluated after 13 days
[15] = 250 g ai/ha, evaluated after 13 days
[16] = 62.5 g ai/ha, 100=total damage to plant, 0=no damage to plant
[17] = 62.5 g ai/ha, evaluated after 13 days, 100=total damage to plant, 0=no damage to plant
[18] = 250 g ai/ha, evaluated after 13 days, 100=total damage to plant, 0=no damage to plant

CN1CC(c2ccc(C(F)(F)F)cc2)C(C(=O)Nc2cccc(F)c2[N+](=O)[O-])C1=O (racemic) [Compound 1546]
Foxtail, Giant damage rating [1, 13]: 60 | Foxtail, Giant damage rating (100=total damage to plant; 0=no damage to plant) [1, 14]: 80 | damage to plant, Foxtail, Giant (100=total damage to plant; 0=no damage to plant) [1, 15]: 80 | Barnyardgrass damage rating [2, 13]: 40 | Barnyardgrass damage rating (100=total damage to plant; 0=no damage to plant) [2, 14]: 70 | damage to plant, Barnyardgrass (100=total damage to plant; 0=no damage to plant) [2, 15]: 80 | Pigweed, Redroot damage rating [3, 13]: 30 | Pigweed, Redroot damage rating (100=total damage to plant; 0=no damage to plant) [3, 14]: 60 | damage to plant, Pigweed, Redroot (100=total damage to plant; 0=no damage to plant) [3, 15]: 60 | Morningglory, Ivy-leaved damage rating [4, 13]: 0 | Morningglory, Ivy-leaved damage rating (100=total damage to plant; 0=no damage to plant) [4, 14]: 20 | damage to plant, Morningglory, Ivy-leaved (100=total damage to plant; 0=no damage to plant) [4, 15]: 30 | Corn damage rating [5, 13]: 0 | Corn damage rating (100=total damage to plant; 0=no damage to plant) [5, 14]: 20 | damage to plant, Corn (100=total damage to plant; 0=no damage to plant) [5, 15]: 50 | Velvetleaf damage rating [6, 13]: 0 | Velvetleaf damage rating (100=total damage to plant; 0=no damage to plant) [6, 14]: 0 | damage to plant, Velvetleaf (100=total damage to plant; 0=no damage to plant) [6, 15]: 10 | Foxtail, Giant damage rating (100=total damage to plant; 0=no damage to plant) ([7]; 15.625 g ai/ha): 60 | plant damage rating, Foxtail, Giant [7, 16]: 80 | Foxtail, Giant damage rating (100=total damage to plant; 0=no damage to plant) ([7]; 250 g ai/ha): 90 | Barnyardgrass damage rating (100=total damage to plant; 0=no damage to plant) ([8]; 15.625 g ai/ha): 0 | plant damage rating, Barnyardgrass [8, 16]: 20 | Barnyardgrass damage rating (100=total damage to plant; 0=no damage to plant) ([8]; 250 g ai/ha): 80 | Pigweed, Redroot damage rating (100=total damage to plant; 0=no damage to plant) ([9]; 15.625 g ai/ha): 0 | plant damage rating, Pigweed, Redroot [9, 16]: 30 | Pigweed, Redroot damage rating (100=total damage to plant; 0=no damage to plant) ([9]; 250 g ai/ha): 70 | Morning-glory, Ivy-leaved damage rating (100=total damage to plant; 0=no damage to plant) ([10]; 15.625 g ai/ha): 0 | plant damage rating, Morningglory, Ivy-leaved [10, 16]: 20 | Morningglory, Ivy-leaved damage rating (100=total damage to plant; 0=no damage to plant) [10]: 40 | Corn damage rating (100=total damage to plant; 0=no damage to plant) ([11]; 15.625 g ai/ha): 0 | plant damage rating, Corn [11, 16]: 10 | Corn damage rating (100=total damage to plant; 0=no damage to plant) ([11]; 250 g ai/ha): 40 | Velvetleaf damage rating (100=total damage to plant; 0=no damage to plant) ([12]; 15.625 g ai/ha): 0 | plant damage rating, Velvetleaf [12, 16]: 0 | Velvetleaf damage rating (100=total damage to plant; 0=no damage to plant) ([12]; 250 g ai/ha): 0

CN1C[C@@H](c2ccc(C(F)(F)F)cc2)[C@H](C(=O)Nc2cccnc2F)C1=O (racemic) [Compound 1653]
Foxtail, Giant damage rating [1, 13]: 60 | Foxtail, Giant damage rating [1, 17]: 80 | Foxtail, Giant damage rating [1, 18]: 80 | Barnyardgrass damage rating [2, 13]: 30 | Barnyardgrass damage rating [2, 17]: 60 | Barnyardgrass damage rating [2, 18]: 80 | Pigweed, Redroot damage rating [3, 17]: 70 | Pigweed, Redroot damage rating [3, 18]: 80 | pest or weed control at 15.625 g/ha ([3]; Amaranthus retroflexus, post-emergence, 312 h, 15.625 g ai/ha, evaluated after 13 days (100=total damage to plant; 0=no damage to plant), read-out: Pigweed, Redroot damage rating): 0% | Morningglory, Ivy-leaved damage rating [4, 13]: 10 | Morningglory, Ivy-leaved damage rating [4, 17]: 30 | Morningglory, Ivy-leaved damage rating [4, 18]: 40 | Corn damage rating [5, 17]: 30 | Corn damage rating [5, 18]: 70 | plant injury at 15.625 g/ha ([5]; Zea mays, post-emergence, 312 h, 15.625 g ai/ha, evaluated after 13 days (100=total damage to plant; 0=no damage to plant), read-out: Corn damage rating): 0% | Velvetleaf damage rating [6, 17]: 40 | Velvetleaf damage rating [6, 18]: 50 | pest or weed control at 15.625 g/ha ([6]; Abutilon theophrasti, post-emergence, 312 h, 15.625 g ai/ha, evaluated after 13 days (100=total damage to plant; 0=no damage to plant), read-out: Velvetleaf damage rating): 0% | Foxtail, Giant damage rating (100=total damage to plant; 0=no damage to plant) ([7]; 15.625 g ai/ha): 60 | Foxtail, Giant damage rating [7, 16]: 90 | Foxtail, Giant damage rating (100=total damage to plant; 0=no damage to plant) ([7]; 250 g ai/ha): 90 | Barnyardgrass damage rating [8, 16]: 80 | Barnyardgrass damage rating (100=total damage to plant; 0=no damage to plant) ([8]; 250 g ai/ha): 80 | pest or weed control at 15.625 g/ha ([8]; Echinochloa crus-galli, pre-emergence, 312 h, 15.625 g ai/ha, read-out: Barnyardgrass damage rating (100=total damage to plant; 0=no damage to plant)): 0% | Pigweed, Redroot damage rating [9, 16]: 40 | Pigweed, Redroot damage rating (100=total damage to plant; 0=no damage to plant) ([9]; 250 g ai/ha): 80 | pest or weed control at 15.625 g/ha ([9]; Amaranthus retroflexus, pre-emergence, 312 h, 15.625 g ai/ha, read-out: Pigweed, Redroot damage rating (100=total damage to plant; 0=no damage to plant)): 0% | Morningglory, Ivy-leaved damage rating (100=total damage to plant; 0=no damage to plant) [10]: 20 | pest or weed control at 15.625 g/ha ([10]; Ipomoea, pre-emergence, 312 h, 15.625 g ai/ha, read-out: Morningglory, Ivy-leaved damage rating (100=total damage to plant; 0=no damage to plant)): 0% | pest or weed control at 62.5 g/ha ([10]; Ipomoea, pre-emergence, 312 h, 62.5 g ai/ha, 100=total damage to plant, 0=no damage to plant, read-out: Morningglory, Ivy-leaved damage rating): 0% | Corn damage rating [11, 16]: 30 | Corn damage rating (100=total damage to plant; 0=no damage to plant) ([11]; 250 g ai/ha): 80 | plant injury at 15.625 g/ha ([11]; Zea mays, pre-emergence, 312 h, 15.625 g ai/ha, read-out: Corn damage rating (100=total damage to plant; 0=no damage to plant)): 0% | Velvetleaf damage rating [12, 16]: 10 | Velvetleaf damage rating (100=total damage to plant; 0=no damage to plant) ([12]; 250 g ai/ha): 50 | pest or weed control at 15.625 g/ha ([12]; Abutilon theophrasti, pre-emergence, 312 h, 15.625 g ai/ha, read-out: Velvetleaf damage rating (100=total damage to plant; 0=no damage to plant)): 0%
